From patent publication US12319709B2, “Diaryl trehalose compounds and uses thereof” (THE UNIVERSITY OF MONTANA, priority 2018, dated 2025) come the findings set out here.

In one assay the test system is RAW264.7 cells. The assay can be described thus: Cytokine (TNFα) response of mouse macrophage cell line; Table 2 'Murine'. The format is cell-based. Also noted: Maximum cytokine response Murine: unit not given here. The note with it: NR = no response. As to the method: Compounds were also tested in a mouse macrophage cell line (FIG. 4B). RAW264.7 cells were subjected to increasing concentrations of the compounds and assessed for production of the cytokine TNFα.

Assay [1] deals with peripheral blood mononuclear cells (PBMCs). The assay is described as follows: IL-6 induction in fresh human PBMCs. It is filed as cell-based. The note with it: human IL-6; NR = no response. Here is the method:
Tumor necrosis factor alpha (TNFα) and IL-6 production in peripheral blood mononuclear cells (PBMCs) was measured after exposure to various concentrations of the DAT compounds synthesized as shown above. Initial studies focused on two different methods of delivery of the DAT compounds to PBMC cultures. In the first delivery method, the indicated derivative compound was dissolved in isopropanol, serially diluted, and then dried to the bottom of a tissue culture plate. In the second delivery method, the indicated derivative compound was dissolved in DMSO and serially diluted into tissue culture media. In each method, PBMCs were added to the compounds and incubated at 37° C. TNFα (FIG. 1A) and IL-6 (FIG. 1B) were measured after 18-24 hours after treatment by ELISA assay.
The isolated PBMCs were exposed to increasing concentrations of the indicated compounds resuspended in DMSO and serially diluted in media. IL-6 levels were determined from supernatants eighteen hours after treatment (FIG. 3).

In the case of `Cc1cc(C(C)(C)C)cc(C)c1C(=O)OC[C@H]1O[C@H](O[C@H]2O[C@H](COC(=O)c3c(C)cc(C(C)(C)C)cc3C)[C@@H](O)[C@H](O)[C@H]2O)[C@H](O)[C@@H](O)[C@@H]1O` [UM1116], in the assay with RAW264.7 cells, the “Maximum cytokine response Murine” value came to 0.005 and the “Minimal Effective Concentration Murine” value came out at 3 µM. For the same compound, in assay [1], the “Maximum cytokine response h-IL-6” value is listed as 2.3 OD and the “Minimal Effective Concentration h-IL-6” value stood at 100 µM.

`CCCCCCOc1cc(OCCCCCC)cc(C(=O)OC[C@H]2O[C@H](O[C@H]3O[C@H](COC(=O)c4cc(OCCCCCC)cc(OCCCCCC)c4)[C@@H](O)[C@H](O)[C@H]3O)[C@H](O)[C@@H](O)[C@@H]2O)c1` [UM1092]: in the assay with RAW264.7 cells, the “Maximum cytokine response Murine” value is listed as “<.001” and the “Minimal Effective Concentration Murine” value came to 3.4 µM. In addition, in assay [1], the “Maximum cytokine response h-IL-6” value came out at 3.3 OD and the “Minimal Effective Concentration h-IL-6” value came to 3.7 µM.

Take `CCOc1cc(C(=O)OC[C@H]2O[C@H](O[C@H]3O[C@H](CO)[C@@H](O)[C@H](O)[C@H]3O)[C@H](O)[C@@H](O)[C@@H]2O)cc(OCC)c1OCC` [UM1120]: in the assay on RAW264.7 cells, the “Maximum cytokine response Murine” value is given as 11 and the “Minimal Effective Concentration Murine” value is 2.5 µM. Besides, in assay [1], the “Maximum cytokine response h-IL-6” value is given as 0.3 OD and the “Minimal Effective Concentration h-IL-6” value came out at 100 µM.

As for `CCCCCOc1cc(OCCCCC)cc(C(=O)OC[C@H]2O[C@H](O[C@H]3O[C@H](COC(=O)c4cc(OCCCCC)cc(OCCCCC)c4)[C@@H](O)[C@H](O)[C@H]3O)[C@H](O)[C@@H](O)[C@@H]2O)c1` [UM1052], in the assay on RAW264.7 cells, the “Maximum cytokine response Murine” value is 1.3 and the “Minimal Effective Concentration Murine” value came out at 0.13 µM. For the same compound, in assay [1], the “Maximum cytokine response h-IL-6” value turned out to be 3.3 OD and the “Minimal Effective Concentration h-IL-6” value was found to be 0.08 µM.

In the case of `O=C(OC[C@H]1O[C@H](O[C@H]2O[C@H](COC(=O)c3ccccc3Nc3ccccc3)[C@@H](O)[C@H](O)[C@H]2O)[C@H](O)[C@@H](O)[C@@H]1O)c1ccccc1Nc1ccccc1` [UM1075], in the assay with RAW264.7 cells, the “Maximum cytokine response Murine” value is listed as 2.2 and the “Minimal Effective Concentration Murine” value is 3.7 µM. Also, in assay [1], the “Maximum cytokine response h-IL-6” value was determined as 3.5 OD and the “Minimal Effective Concentration h-IL-6” value is 20 µM.

For `CC(C)(C)CC(C)(C)c1ccc(O)c(C(=O)OC[C@H]2O[C@H](O[C@H]3O[C@H](COC(=O)c4cc(C(C)(C)CC(C)(C)C)ccc4O)[C@@H](O)[C@H](O)[C@H]3O)[C@H](O)[C@@H](O)[C@@H]2O)c1` [UM1117], in the assay with RAW264.7 cells, the “Maximum cytokine response Murine” value is given as 11 and the “Minimal Effective Concentration Murine” value is 3 µM. In assay [1], the “Maximum cytokine response h-IL-6” value amounted to 9 OD and the “Minimal Effective Concentration h-IL-6” value is 33.3 µM.

As to `O=C(OC[C@H]1O[C@H](O[C@H]2O[C@H](COC(=O)c3ccc(C(F)(F)F)cc3C(F)(F)F)[C@@H](O)[C@H](O)[C@H]2O)[C@H](O)[C@@H](O)[C@@H]1O)c1ccc(C(F)(F)F)cc1C(F)(F)F` [UM1084], in the assay with RAW264.7 cells, the “Maximum cytokine response Murine” value is 2.9 and the “Minimal Effective Concentration Murine” value came to 33 µM. Also, in assay [1], the “Maximum cytokine response h-IL-6” value amounted to 3 OD and the “Minimal Effective Concentration h-IL-6” value came to 100 µM.

Consider `COc1cc(Br)c(CC(=O)OC[C@H]2O[C@H](O[C@H]3O[C@H](COC(=O)Cc4cc(OC)c(OC)cc4Br)[C@@H](O)[C@H](O)[C@H]3O)[C@H](O)[C@@H](O)[C@@H]2O)cc1OC` [UM1082], for which, in the assay with RAW264.7 cells, the “Maximum cytokine response Murine” value is 1.7 and the “Minimal Effective Concentration Murine” value worked out at 33 µM. In addition, in assay [1], the “Maximum cytokine response h-IL-6” value turned out to be 0.5 OD and the “Minimal Effective Concentration h-IL-6” value is 100 µM.

Turning to `CCCCCCCCOc1cc(C(=O)OC[C@H]2O[C@H](O[C@H]3O[C@H](COC(=O)c4cc(OCCCCCCCC)c(OCCCCCCCC)c(OCCCCCCCC)c4)[C@@H](O)[C@H](O)[C@H]3O)[C@H](O)[C@@H](O)[C@@H]2O)cc(OCCCCCCCC)c1OCCCCCCCC` [UM1098], in the assay on RAW264.7 cells, the “Maximum cytokine response Murine” value is 0.04 and the “Minimal Effective Concentration Murine” value stood at 3.4 µM. Further, in assay [1], the “Maximum cytokine response h-IL-6” value is 3.4 OD and the “Minimal Effective Concentration h-IL-6” value came to 11 µM.
